22 compounds from US10377747B2, “2-arylamino pyridine, pyrimidine or triazine derivatives, preparation method and use thereof” (Wuxi Shuangliang Biotechnology Co., Ltd., priority 2015, dated 2019) can be followed below.

Test [1] has as its system A431 (human epidermal cancer cells, EGFR wild type). Kind of test: Tumor cell proliferation and growth inhibition analysis (Cell Titer-Glo, 72 h), A431. Type of test: cell-based. The following applies: A-431, 72 h exposure. The text has this:
(§1) […] cell proliferation assay is described as follows.
(§2) Tumor cell proliferation and growth inhibition analysis: H1975 (non-small-cell lung cancer cells. EGFR L858K/T790M) and A431 (human epidermal cancer cells, EGFR wild type) cells were commercially available from the ATCC cell bank. […] The growth medium for A431 cells was DMEM (GIBCO, 11995-065), 10% fetal bovine serum. The influence exerted by the compounds on the proliferation activity of tumor cells was detected by Cell Titer-Glo assay. Tumor cells were exposed to the treatment conditions for 72 h, and the cell density used in each experiment for each cell line was adjusted according to the 72 h cell growth curve. 10 concentration gradients and three-fold dilutions (0.5 nM-10 μM) were set for compounds to be tested, and 3 parallel controls were used for each concentration value.
(§3) Trypsin was used for digesting cells in the logrithmic growth phase to prepare cell suspension, which was counted by a Roche counter and appropriately diluted with complete medium to a final cell concentration of 1˜2×10^3 cell/mL. 384-well plates were seeded with cells, and 22.6 μL were seeded for each well. 3 parallels were set. The plates were incubated in an incubator with 5% CO2 at 37° C. overnight. The compounds were dissolved in DMSO to prepare […] mother liquor. […] 2 μL of compound solution was added into 18 μL of culture medium, and fully mixed. Then 2 μL of mixed solution of compound and culture medium was added into 18 μL of culture medium, and fully mixed. 2.4 μL of mixtures were added into a 384-well plates. […] After cultivation for 72 h, 24 μL of Cell Titer-Glo reagent was added. The contents were mixed on an orbital shaker for 2 min to induce cell lysis. The 384-well plates were incubated at room temperature for 10 min to stabilize the […] signal value. Data was read by Infinite® M1000 PRO (TECAN), and calculated with GraphPad Prism version 5.0. GI50 value was obtained by adjustment using a non-linear regression model of dose response curves.
In general terms: Cellular ATP, detected with luciferase, serves as a proxy for viable cell number.

Test [2] deals with H1975 (non-small-cell lung cancer cells. EGFR L858K/T790M). The experiment in a line: Tumor cell proliferation and growth inhibition analysis (Cell Titer-Glo, 72 h), H1975. The format is cell-based. The following applies: Homo sapiens, NCI-H1975; H1975 cells, 72 h exposure, Cell Titer-Glo; read-out: H1975 GI50.
Text: as §1, §2, §3

Some results are limits rather than exact numbers.

On to `C=CC(=O)Nc1cc(Nc2nccc(-c3nn(C)c4ccsc34)n2)c(OC)cc1N(C)CCN(C)C` [Example 24, N-(2-((2-(dimethylamino)ethyl)(methyl)amino)-4-methoxy-5-((4-(1-methyl-1H-thieno[3,2-c]pyrazol-3-yl)pyrimidin-2-yl)amino)phenyl)acrylamide], for which the concentration for 50% growth inhibition (GI50) in test [1] is 209 nM; in test [2], 10.7 nM.
The matching figures for `C=CC(=O)Nc1cc(Nc2nccc(-c3nn(C)c4ccsc34)n2)c(OC(F)F)cc1N(C)CCN(C)C` [Example 25]: 85.8 nM and 6.5 nM.
For `C=CC(=O)Nc1cc(Nc2nccc(-c3nn(C)c4ccsc34)n2)c(OC(F)F)cc1N1CCN(C)CC1` [Example 26, N-(4-(difluoromethoxy)-5-((4-(1-methyl-1H-thieno[3,2-c]pyrazol-3-yl)pyrimidin-2-yl)amino)-2-(4-methylpiperazin-1-yl)phenyl)acrylamide] the same measures were 1130 nM and 296 nM.
The matching figures for `C=CC(=O)Nc1cc(Nc2nccc(-c3nn(C)c4ccsc34)n2)c(OC(F)F)cc1N1CC(N(C)C)C1` [Example 27, N-(4-(difluoromethoxy)-2-(3-(dimethylamino)azetidin-1-yl)-5-((4-(1-methyl-1H-thieno[3,2-c]pyrazol-3-yl)pyrimidin-2-yl)amino)phenyl)acrylamide]: 2540 nM and 1100 nM.
`C=CC(=O)Nc1cc(Nc2nccc(-c3nn(C)c4ccsc34)n2)c(OC(F)F)cc1N1CCC(N(C)C)CC1` [Example 28]: the 50% growth inhibitory concentration (GI50) in test [1] was 5300 nM; in test [2] it was 261 nM.
For `C=CC(=O)Nc1cc(Nc2nccc(-c3nn(C)c4ccsc34)n2)c(OC(F)F)cc1N1CC2(CCCN2C)C1` [Example 29, N-(4-(difluoromethoxy)-5-((4-(1-methyl-1H-thieno[3,2-c]pyrazol-3-yl)pyrimidin-2-yl)amino)-2-(5-methyl-2,5-diazaspiro[3.4]oct-2-yl)phenyl)acrylamide] the same measures were more than 1000 nM and 60.3 nM.
The matching figures for `C=CC(=O)Nc1cc(Nc2nccc(-c3cn(C)c4cc(C)sc34)n2)c(OC)cc1N(C)CCN(C)C` [Example 30]: 943 nM and 21.5 nM.
For `C=CC(=O)Nc1cc(Nc2nccc(-c3c(C)n(C)c4sc(C)cc34)n2)c(OC)cc1N(C)CCN(C)C` [Example 31, N-(2-((2-(dimethylamino)ethyl)(methyl)amino)-4-methoxy-5-((4-(2,5,6-trimethyl-thieno[2,3-b]pyrrol-4-yl)pyrimidin-2-yl)amino)phenyl)acrylamide] the same measures were 625 nM and 33.5 nM.
Regarding `C=CC(=O)Nc1cc(Nc2ncnc(-c3cccc4cc[nH]c34)n2)c(OC)cc1N(C)CCN(C)C` [Example 32, N-(5-((4-(H-indol-7-yl)-1,3,5-triazin-2-yl)amino)-2-((2-(dimethylamino)ethyl)(methyl)amino)-4-methoxyphenyl)acylamide], the concentration for 50% growth inhibition (GI50) in test [1] stood at 147 nM; in test [2], 9.4 nM.
The matching figures for `C=CC(=O)Nc1cc(Nc2ncnc(-c3cccc4cc[nH]c34)n2)c(OC(F)F)cc1N(C)CCN(C)C` [Example 33, N-(5-((4-(1H-indol-7-yl)-1,3,5-triazin-2-yl)amino)-4-(difluoromethoxy)-2-((2-(dimethylamino)ethyl)(methyl)amino)phenyl)acrylamide]: 100 nM and 9.8 nM.
For `C=CC(=O)Nc1cc(Nc2ncnc(-c3cccc4cc[nH]c34)n2)c(OC)cc1N1CCN(C)CC1` [Example 34, N-(5-((4-(1H-indol-7-yl)-1,3,5-triazin-2-yl)amino)-4-methoxy-2-(4-methylpiperazin-1-yl)phenyl)acrylamide] the same measures were 2570 nM and 462 nM.
For `C=CC(=O)Nc1cc(Nc2ncnc(-c3cccc4cc[nH]c34)n2)c(OC)cc1N1CC(N(C)C)C1` [Example 35, N—(5-((4-(1H-indol-7-yl)-1,3,5-triazin-2-yl)amino)-2-(3-(dimethylamino)azetidin-1-yl)-4-methoxyphenyl)acylamide] the same measures were 3320 nM and 1560 nM.
Turning to `C=CC(=O)Nc1cc(Nc2ncnc(-c3cccc4cc[nH]c34)n2)c(OC)cc1N1CC2(CCCN2C)C1` [Example 36, N-(5-((4-(1H-indol-7-yl)-1,3,5-triazin-2-yl)amino)-4-methoxy-2-(5-methyl-2,5-diazaspiro[3.4]oct-2-yl)phenyl)acrylamide], the GI50 turned out to be 1120 nM in test [1] and 114 nM in test [2].
For `C=CC(=O)Nc1cc(Nc2ncnc(-c3cccc4ccn(C)c34)n2)c(OC)cc1N(C)CCN(C)C` [Example 37, N-(2-((2-(dimethylamino)ethyl)(methyl)amino)-4-methoxy-5-((4-(1-methyl-1H-indol-7-yl)-1,3,5-triazin-2-yl)amino)phenyl)acrylamide] the same measures were 1320 nM and 441 nM.
The matching figures for `C=CC(=O)Nc1cc(Nc2ncnc(-c3cn(C)c4ncccc34)n2)c(OC(F)F)cc1N(C)CCN(C)C` [Example 38, N-(4-(difluoromethoxy)-2-((2-(dimethylamino)ethyl)(methyl)amino)-5-((4-(1-methyl-1H-pyrrolo[2,3-b]pyridin-3-yl)-1,3,5-triazin-2-yl)amino)phenyl)acrylamide]: 144 nM and 8.3 nM.
For `C=CC(=O)Nc1cc(Nc2ncnc(-n3cnc4ccccc43)n2)c(OC)cc1N(C)CCN(C)C` [Example 39, N-(5-((4-(1H-benzo[d]imidazol-1-yl)-1,3,5-triazin-2-yl)amino)-2-((2-(dimethylamino)ethyl)(methyl)amino)-4-methoxyphenyl)acrylamide] the same measures were 15.2 nM and 21.2 nM.
In the case of `C=CC(=O)Nc1cc(Nc2cc(-c3cn(C)c4ncccc34)ccn2)c(OC)cc1N(C)CCN(C)C` [Example 40, N-(2-((2-(dimethylamino)ethyl)(methyl)amino)-4-methoxy-5-((4-(1-methyl-1H-pyrrolo[2,3-b]pyridin-3-yl)pyridin-2-yl)amino)phenyl)acrylamide], the results for the GI50 in test [1] and in test [2] were 198 nM and 28.9 nM, respectively.
Turning to `C=CC(=O)Nc1cc(Nc2cc(-c3nn(C)c4ccsc34)ccn2)c(OC)cc1N(C)CCN(C)C` [Example 41, N-(2-((2-(dimethylamino)ethylmethyl)amino)-4-methoxy-5-((4-(1-methyl-1H-thieno[3,2-c]pyrazol-3-yl)pyridin-2-yl)amino)phenyl)acrylamide], the GI50 in test [1] is approximately 800 nM; in test [2] it was approximately 36.5 nM.
The matching figures for `C=CC(=O)Nc1cc(Nc2cc(-c3nn(C)c4cccnc34)ccn2)c(OC)cc1N(C)CCN(C)C` [Example 42, N-(2-((2-(dimethylamino)ethyl)(methyl)amino)-4-methoxy-5-((4-(1-methyl-1H-pyrazolo[4,3-b]pyridin-3-yl)pyridin-2-yl)amino)phenyl)acrylamide]: 264 nM and 16.3 nM.
For `C=CC(=O)Nc1cc(Nc2cc(-c3cnn4cccnc34)ccn2)c(OC)cc1N(C)CCN(C)C` [Example 43, N-(2-((2-(dimethylamino)ethyl)(methyl)amino)-4-methoxy-5-((4-(pyrazolo[1,5-a]pyrimidin-3-yl)pyridin-2-yl)amino)phenyl)acrylamide] the same measures were 267 nM and 19.1 nM.
Consider `C=CC(=O)Nc1cc(Nc2cc(-c3cnc4ccccn34)ccn2)c(OC)cc1N(C)CCN(C)C` [Example 44, N-(2-((2-(dimethylamino)ethyl)(methyl)amino)-5-((4-(imidazo[1,2-a]pyridin-3-yl)pyridin-2-yl)amino)-4-methoxyphenyl)acrylamide], for which the values for the GI50 in test [1] and in test [2] were 638 nM and 104 nM, respectively.
As to `C=CC(=O)Nc1cc(Nc2cc(-n3nc(C)c4ccccc43)ccn2)c(OC)cc1N(C)CCN(C)C` [Example 45, N-(2-((2-(dimethylamino)ethyl)(methyl)amino)-4-methoxy-5-((4-(3-methyl-1H-indazol-1-yl)pyridin-2-yl)amino)phenyl)acrylamide], the concentration for 50% growth inhibition (GI50) came out at 798 nM in test [1] and 7.6 nM in test [2].

One may read the GI50 as the concentration that inhibits growth by half.
